# Measured values published in US20240216412A1, “OXIDIZED NICOTINAMIDE ADENINE DINUCLEOTIDE (NAD+) PRECURSOR TREATMENT FOR HEART FAILURE ALLEVIATION INDEPENDENT OF MITOCHONDRIAL PROTEIN DEACETYLATION” (University of Washington, priority 2022, published 2024).
# What was measured:
# Format in all cases: in vivo, mouse
# [1] = test system: isoproterenol (ISO) induced heart failure in WT and Sirt3Ko mice; experiment: Isoproterenol (ISO) minipump induced heart failure, echocardiography and HW/TL; settings: 14 days of ISO, NR 500 mg/kg body weight IP daily
# Experimental: Minipump implantation. Pathologic hypertrophy was induced by treating male (3-4 months old) Sirt3ko and WT mice with isoproterenol (ISO) or vehicle for 14 days. Mice with and without GW6471(4.5 mg/kg/day) were treated with NR (500 mg/kg body weight IP daily) or vehicle starting at day one after mini-pump insertion. Briefly, an incision was made in the skin between the shoulder blades. A deep subcutaneous pocket was made caudal to the incision using blunt dissection. The sterile minipump (Alzet #2002) was inserted into the pocket, and the incision was closed with wound clips. Isoproterenol (30 mg/kg/day) was delivered by osmotic minipump for 14 days. Minipumps carrying saline were used as a control.
# Transthoracic Echocardiography. Echocardiography of hearts was performed at indicated time after surgery using the VEVO 2100 high-frequency, high-resolution digital imaging system (VisualSonics) equipped with a MS400 Microscan Transducer on anesthetized mice (0.5%-2% isoflurane in 95% oxygen). Measurements were made when heart rate was >450 bpm. Cardiac function and geometry measurements were measured in parasternal short axis view. M-mode images were used for analysis and calculated by the average of at least three cardiac cycles and carried out in a blind fashion. Hearts were harvested at 12-week post-surgery for subsequent experiments and biochemical assays.
# Organ weight and histological assessment. Hearts from mice were harvested, rinsed briefly in 1×PBS, blotted dry, and weighed. Lungs from the same mice were harvested, weighed, then dried at 56 C. After 72 hours the lungs were weighed again. Heart weight (HW) and Lung weight (LW) was normalized to tibia length (TL) to assess changes in hypertrophic growth and lung edema, respectively. For histology, hearts were perfusion fixed with 10% neutral buffered formalin. Longitudinal sections of hearts were stained with Masson's Trichrome for assessment of fibrosis by the University of Washington Histology and Imaging Core.
# [2] = test system: NAD(H) levels in hearts and livers; experiment: Heart and liver NAD+/NADH after oral or IP NR administration (Experimental Example 2)
# Experimental: Mice 2-4 months old were used, weighing 25 to 27 g, with water intake ranging from 3.5 to 6.5 ml/day. To each mouse, either NR as an NAD precursor was administered daily or vehicle was administered daily, for up to 10 days, either by IP injection or orally by drinking water. Saline was used as vehicle for IP injection. For oral administration, vehicle was unmodified drinking water. NR was supplied substantially as in Experimental Example 1. For IP administration, NR was diluted in sterile, pharmaceutical-grade isotonic saline at concentrations based on weight-based dosing per subject to provide respective 500 mg/kg body weight daily doses as administrated by IP injection. Additionally, for oral administration, NR was dissolved in sterile filtered water at concentrations based on weight-based dosing per subject to provide respective 400 mg/kg body weight daily doses, provided for drinking adlibitum. […] Over the first several days of oral administration of NR solutions, the consumption of NR water was monitored daily to verify that mice are not finding the NR water unpalatable and becoming dehydrated. […] NAD^+ and NADH were determined in approximately 6 mg heart tissue and approximately 6 mg liver tissue using BioAssay Systems EnzyChrom NAD^+/NAD Assay Kit ([…]-100) per manufactures instructions.
# [3] = test system: heart mRNA levels (Nppa, Ctgf, mtDNA encoded genes, PPARα/RXRα target genes); experiment: RT-PCR of heart transcripts and mitochondrial RNA junctions
# Experimental: RNA Extraction and Quantitative Real-Time Polymerase Chain Reaction (RT-PCR). Total RNA was isolated from frozen heart tissue using the RNeasy fibrous Kit (Qiagen). Total RNA was reverse-transcribed into first-strand cDNA using Iscript (Bio-rad) according to manufacturer's guidelines. Real Time PCR was performed using SYBR green (Bio-Rad). Results of mRNA levels were normalized to 18S rRNA levels and reported as fold-change over control.
smiles,measurement,setting,value
"NC(=O)c1ccc[n+]([C@@H]2O[C@H](CO)[C@@H](O)[C@H]2O)c1 [NR, Nicotinamide riboside chloride]",Cardiac hypertrophy,[1],partially reduced
same,FS %,[1],increased
same,"Increase of NAD(H) in hearts and livers, IP injection over oral administration",[2]; IP 500 mg/kg daily 10 days vs oral 400 mg/kg daily 3 or 7 days,greater increases
same,Levels of NAD(H) in hearts and livers,"[2]; oral 400 mg/kg daily 3 or 7 days, IP 500 mg/kg daily 10 days",increased
same,Atrial natriuretic peptide (Nppa) levels,[3]; Sirt3ko and WT TAC mice,decreased
same,Connective growth factor (Ctgf) levels,[3]; Sirt3ko and WT TAC mice,decreased
same,"Expression of mtDNA encoded genes (mt-Nd1, mt-Cox1 and mt-Cytb)","[3]; TAC hearts, Sirt3Ko and WT",improved
same,Expression of nuclear DNA encoded ETC genes,"[3]; TAC hearts, Sirt3Ko and WT",not changed
same,"Expression of PPARα target genes (Acadm, Ucp2, Ucp3, Octn2, Cpt1b)",[3]; failing (TAC) hearts,increased
same,"Accumulation of mitochondrial RNA precursor fragments (Nd1-Nd2, Cox1-Cox2 junctions)",[3]; failing hearts of WT and Sirt3Ko mice,removed the accumulation of RNA precursor fragments
